Data set [1] addresses T1, Replicase polyprotein 1ab (Severe acute respiratory syndrome coronavirus 2, UniProt P0DTD1). Kind of data set: Inhibition of N-terminal his-tagged SARS-CoV-2 Main protease expressed in Escherichia coli BL21 (DE3) using Dabcyl-TSAVLWSGFRICMK-Edans as substrate preincubated for 10 mins by microplate reader analysis.
For data set [2], the target named is T1, Replicase polyprotein 1ab. Put plainly: Binding affinity to N-terminal his-tagged SARS-CoV-2 Main protease expressed in Escherichia coli BL21 (DE3) assessed as dissociation constant by ITC analysis. Background: ITC needs no label: the signal is the heat of the interaction.
Data set [3] concerns SARS-CoV-2. Kind of data set: Antiviral activity against SARS-CoV-2 infected in human Caco-2 cells assessed as inhibition of viral infection preincubated for 1 hr followed by viral infection measured after 48 hrs by CQ1 confocal quantitative image cytometer analysis. The class given is functional, organism-based. Particulars: for Activity: Severe acute respiratory syndrome coronavirus 2, time 49.0 hrs; for EC50: Severe acute respiratory syndrome coronavirus 2, Caco-2.

For data set [4], the system named is SARS-CoV-2. Put plainly: Antiviral activity against SARS-CoV-2. In kind it is functional, organism-based. Particulars: Severe acute respiratory syndrome coronavirus 2.
Another data set deals with Caco-2. Put plainly: (§1) Cytotoxicity against human Caco-2 cells assessed as cell viability at 100 uM incubated for 48 hrs by CCK-8 assay. In kind it is toxicity, cell-based. Particulars: caco-2, 48 h, 100 µM.
Data set [5] can be described thus: Clearance in male CD-1 mouse at 4 mg/kg, iv by LC-MS/MS analysis. The class given is ADME, organism-based. Particulars: in vivo.
The nature of data set [6]: Drug uptake in human HeLa cells at 5 uM measured after 3 hrs by live confocal microscopic analysis. In kind it is ADME, cell-based.
Data set [7] can be described thus: Half life in male CD-1 mouse at 4 mg/kg, iv by LC-MS/MS analysis. In kind it is ADME, organism-based. Particulars: in vivo.
A short description of data set [8]: Initial plasma concentration in male CD-1 mouse at 4 mg/kg, iv by LC-MS/MS analysis. The class given is ADME, organism-based.
A short description of data set [9]: AUC (0 to infinity) in male CD-1 mouse at 4 mg/kg, iv by LC-MS/MS analysis. The class given is ADME, organism-based. The following applies: in vivo.
Data set [10] can be described thus: Metabolic stability in mouse serum assessed as half life by HPLC analysis. In kind it is ADME, cell-free.
A short description of data set [11]: Volume of distribution at steady state in male CD-1 mouse at 4 mg/kg, iv by LC-MS/MS analysis. The following applies: in vivo, read-out: Vdss. The class given is ADME, organism-based.
Data set [12] in a line: Drug uptake in human Caco-2 cells at 5 uM measured after 3 hrs by live confocal microscopic analysis. In kind it is ADME, cell-based. Particulars: caco-2, 3 h.
Data set [13] can be described thus: as §1. The class given is toxicity, cell-based. Particulars: Caco-2 cells.
Data set [14] concerns the target Cathepsin B (Homo sapiens) (UniProt P07858). Put plainly: Inhibition of cathepsin B (unknown origin).
The target in data set [15] is Ubiquitin carboxyl-terminal hydrolase 14 (Homo sapiens) (UniProt P54578). Kind of data set: Inhibition of USP14 (unknown origin).
Data set [16] deals with SARS-CoV-2. Kind of data set: Antiviral activity against SARS-CoV-2 Omicron. Particulars: Severe acute respiratory syndrome coronavirus 2, Omicron. In kind it is functional, organism-based.

What is called IC50 is the concentration that inhibits the measured activity by half. Lower therefore signals greater potency in that assay. For orientation: Kd means a measure of binding affinity in units of concentration. For orientation: EC50 means the concentration needed to bring the measured effect to its halfway point. Broadly, the clearance is the volume of plasma or blood freed of the substance per unit of time. Lower therefore signals inefficient removal. In general, half-life refers to the time in which the quantity being followed falls by half. For orientation: AUC(0-inf) means the area under the concentration-time curve extrapolated to infinity. Lower therefore signals low exposure. One may read the CC50 as the concentration at which the toxic effect on the cells reaches its halfway point.

Molecules are shown by their SMILES. The source made the active and inactive calls. The calls are words filed in the database; no cut-off is given here. Positions of bridges follow the written chain, without caps; N, C: chain ends. Residues, ends and D or L forms follow the SMILES beside them.

Chain of Ubiquitin carboxyl-terminal hydrolase 14 (Homo sapiens) (P54578 whole entry): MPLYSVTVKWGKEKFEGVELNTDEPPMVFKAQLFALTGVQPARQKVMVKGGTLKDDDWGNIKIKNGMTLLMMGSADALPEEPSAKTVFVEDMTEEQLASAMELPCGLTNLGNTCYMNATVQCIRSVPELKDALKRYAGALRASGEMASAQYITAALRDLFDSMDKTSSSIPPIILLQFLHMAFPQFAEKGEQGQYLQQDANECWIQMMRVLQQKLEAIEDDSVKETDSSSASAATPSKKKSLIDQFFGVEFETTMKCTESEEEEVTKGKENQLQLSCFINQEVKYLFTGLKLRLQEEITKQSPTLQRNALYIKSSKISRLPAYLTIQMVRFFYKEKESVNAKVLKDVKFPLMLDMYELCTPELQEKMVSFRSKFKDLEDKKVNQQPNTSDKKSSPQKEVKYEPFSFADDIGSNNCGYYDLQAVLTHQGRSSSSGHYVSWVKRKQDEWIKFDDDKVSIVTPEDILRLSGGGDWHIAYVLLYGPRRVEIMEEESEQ

In the case of `CC(C)C[C@@H]1NC(=O)[C@H](CC(N)=O)NC(=O)[C@H](Cc2ccc(O)cc2)NC(=O)CSC[C@@H](C(=O)NCC(N)=O)NC(=O)[C@H](Cc2ccccc2)NC(=O)[C@H](CCCNC(=N)N)NC(=O)[C@H](CCC(N)=O)NC(=O)[C@H](CC(N)=O)NC(=O)[C@H](Cc2c[nH]c3ccccc23)NC(=O)[C@H](CC(=O)O)NC(=O)[C@H]([C@@H](C)O)NC(=O)[C@H](CCCNC(=N)N)NC(=O)[C@H](CCC(N)=O)NC(=O)[C@H](Cc2ccccc2)NC1=O` ({CH2CO}-YNLFQRTDWNQRFCG-NH2; thioether N-14), the midpoint of inhibition in [1], the IC50, lay at 250 nM. Besides, the equilibrium dissociation constant (Kd) in data set [2] turned out to be 2540 nM. For the same molecule, the outcome in the data set on SARS-CoV-2 [3] was inactive.
In the data set on SARS-CoV-2 [4], `CC(C)C[C@H](NC(=O)OCc1ccccc1)C(=O)N[C@@H](CC1CCNC1=O)C(O)S(=O)(=O)O` (stereo not given in full) registered a concentration for a half-maximal effect (EC50) of 4500 nM.
As for `CC(C)[C@@H]1NC(=O)[C@@H](Cc2ccc(O)cc2)NC(=O)CC[C@@H](C(N)=O)NC(=O)[C@@H]2CCCN2C(=O)[C@@H]2CCCN2C(=O)C2CSc3c(F)c(F)c(c(F)c3F)-c3c(F)c(F)c(c(F)c3F)SC[C@H](NC1=O)C(=O)N[C@@H](Cc1ccccc1)C(=O)N[C@@H](Cc1c[nH]cn1)C(=O)N[C@@H]([C@@H](C)O)C(=O)N[C@@H]([C@@H](C)O)C(=O)N[C@@H]([C@@H](C)O)C(=O)N1CCC[C@H]1C(=O)N[C@@H](Cc1ccccc1)C(=O)N2`, in data set [1], it took 4510 nM to reach half-maximal inhibition (IC50). In the data set with Caco-2, the Activity entry is on record as “Non-toxic”. The clearance in data set [5] was found to be 26.5 mL/min/kg. The Drug uptake entry in data set [6] and in data set [12] was “Active” throughout. Also, the results for the half-life in data set [7] and in data set [10] were 0.499 h and 8 h, respectively. Besides, in data set [8], the C0 was 12100 ng/mL. The same molecule had an AUC(0-inf) in data set [9] of 2530 ng·h/mL. Also, the Vd in [11] turned out to be 0.511 L/kg. Moreover, the EC50 in the data set on SARS-CoV-2 [3] is 8620 nM.
In turn, `CC[C@H](C)[C@@H]1NC(=O)[C@H](Cc2ccc(O)cc2)NC(=O)[C@H](CO)NC(=O)[C@H](CC(C)C)NC(=O)CNC(=O)[C@H](Cc2ccc(O)cc2)NC(=O)[C@H](CO)NC(=O)[C@H](CCC(N)=O)NC(=O)[C@H](Cc2ccccc2)NC(=O)[C@@H](Cc2ccc(O)cc2)NC(=O)CSC[C@@H](C(=O)NCC(N)=O)NC(=O)CNC(=O)[C@@H]2CCCN2C1=O` gave an IC50 in data set [1] of 460 nM. Also, the Kd in [2] was 2780 nM. Besides, the outcome in the data set with SARS-CoV-2 [3] was inactive.
The matching figures for `CC(C)C[C@@H]1NC(=O)[C@H](Cc2ccccc2)NC(=O)[C@@H](Cc2ccc(O)cc2)NC(=O)CSC[C@@H](C(=O)NCC(N)=O)NC(=O)CNC(=O)[C@H](Cc2ccccc2)NC(=O)[C@H]([C@@H](C)O)NC(=O)[C@H](Cc2ccc(O)cc2)NC(=O)[C@H](CCCNC(=N)N)NC(=O)[C@H](Cc2ccc(O)cc2)NC(=O)[C@@H]2CCCN2C(=O)[C@@H]2CCCN2C1=O`: 1450 nM, 4000 nM and “inactive”.
The matching figures for `CC(C)C[C@@H]1NC(=O)[C@H](CC(N)=O)NC(=O)[C@H](Cc2ccc(O)cc2)NC(=O)CSC[C@@H](C(=O)NCC(N)=O)NC(=O)[C@H](Cc2ccccc2)NC(=O)[C@H](CO)NC(=O)[C@H](CO)NC(=O)[C@H](CO)NC(=O)[C@H](Cc2c[nH]c3ccccc23)NC(=O)[C@H](CC(=O)O)NC(=O)[C@H](C)NC(=O)[C@H](CCCNC(=N)N)NC(=O)[C@H](CCC(N)=O)NC(=O)[C@H](Cc2ccccc2)NC1=O` ({CH2CO}-YNLFQRADWSSSFCG-NH2; thioether N-14): 300 nM, 6730 nM and “inactive”.
Take `CC(C)C[C@@H]1NC(=O)[C@H](CC(N)=O)NC(=O)[C@H](Cc2ccc(O)cc2)NC(=O)CSC[C@@H](C(=O)NCC(N)=O)NC(=O)[C@H](Cc2ccc(O)cc2)NC(=O)[C@H](CCC(N)=O)NC(=O)[C@H]([C@@H](C)O)NC(=O)[C@H]([C@@H](C)O)NC(=O)[C@H](Cc2c[nH]c3ccccc23)NC(=O)[C@H](CC(=O)O)NC(=O)[C@H]([C@@H](C)O)NC(=O)[C@H](CCCNC(=N)N)NC(=O)[C@H](CCC(N)=O)NC(=O)[C@H](Cc2ccccc2)NC1=O` ({CH2CO}-YNLFQRTDWTTQYCG-NH2; thioether N-14): the IC50 in data set [1] amounted to 500 nM. Besides, in data set [13], the CC50 at 48 h was more than 100000 nM. In data set [2], the Kd came out at 1120 nM. Further, in data set [10], the half-life is 1.6 h. Further, in the data set on SARS-CoV-2 [3], the EC50 was 4890 nM and the result was inactive.
Turning to `CC(C)C[C@@H]1NC(=O)[C@H](Cc2ccccc2)NC(=O)[C@@H]2CCCN2C(=O)[C@H]([C@@H](C)O)NC(=O)[C@H]([C@@H](C)O)NC(=O)[C@H]([C@@H](C)O)NC(=O)[C@H](Cc2c[nH]cn2)NC(=O)[C@H](Cc2ccccc2)NC(=O)[C@H]([C@@H](C)O)NC(=O)[C@H](C(C)C)NC(=O)[C@@H](Cc2ccc(O)cc2)NC(=O)CSC[C@@H](C(=O)NCC(N)=O)NC(=O)[C@@H]2CCCN2C(=O)[C@@H]2CCCN2C1=O`, the IC50 in data set [1] was 300 nM. Further, the inhibition entry in [14] and in [15] was “Active” each time. Also, the CC50 at 48 h in data set [13] is more than 100000 nM. In addition, in data set [2], the Kd worked out at 2750 nM. In data set [10], the half-life was 5.4 h. In the data set on SARS-CoV-2 [3], the EC50 was 10800 nM. For the same molecule, in the data set on SARS-CoV-2 [3], the result was inactive.
Molecule `CC(C)C[C@@H]1NC(=O)[C@H](Cc2ccc(F)c(F)c2)NC(=O)[C@@H]2CCCN2C(=O)[C@H]([C@@H](C)O)NC(=O)[C@H]([C@@H](C)O)NC(=O)[C@H]([C@@H](C)O)NC(=O)[C@H](Cc2c[nH]cn2)NC(=O)[C@H](Cc2cccc(F)c2)NC(=O)[C@H]([C@@H](C)O)NC(=O)[C@H](C(C)C)NC(=O)[C@@H](Cc2ccc(O)cc2)NC(=O)CSC[C@@H](C(=O)NCC(N)=O)NC(=O)[C@@H]2CCCN2C(=O)[C@@H]2CCCN2C1=O` gave an IC50 in data set [1] of 320 nM. For the same molecule, the inhibition result in data set [14] and in data set [15] was “Active” each time. In the data set on SARS-CoV-2 [3], the EC50 is more than 100000 nM.
`CC[C@H](C)[C@@H]1NC(=O)[C@@H](Cc2ccc(O)cc2)NC(=O)CSC[C@@H](C(=O)NCC(N)=O)NC(=O)[C@@H]2CCCN2C(=O)[C@H](CC(C)C)NC(=O)[C@H](CC(C)C)NC(=O)[C@H]([C@@H](C)O)NC(=O)[C@H](CC(N)=O)NC(=O)CNC(=O)[C@H](CO)NC(=O)[C@H](C)NC(=O)[C@H](Cc2ccccc2)NC(=O)[C@H](CCCNC(=N)N)NC1=O` had an IC50 in data set [1] of 250 nM. Further, the Kd in [2] is 4800 nM. Further, the result in the data set with SARS-CoV-2 [3] was inactive.
With `Cc1cccc(C)c1OCC(=O)N[C@@H](Cc1ccccc1)[C@@H](O)C[C@H](Cc1ccccc1)NC(=O)[C@H](C(C)C)N1CCCNC1=O` [LOPINAVIR], the Activity entry in the data set on Caco-2 is “Toxic”. In addition, the EC50 in the data set on SARS-CoV-2 [4] is 8750 nM.
In the data set on SARS-CoV-2 [4], `CC(C)c1nc(CN(C)C(=O)N[C@H](C(=O)N[C@@H](Cc2ccccc2)C[C@H](O)[C@H](Cc2ccccc2)NC(=O)OCc2cncs2)C(C)C)cs1` [RITONAVIR] registered an EC50 of 7540 nM.
On the same count and under the same terms, in the case of `CC(C)(C)[C@H](NC(=O)C(F)(F)F)C(=O)N1C[C@H]2[C@@H]([C@H]1C(=O)N[C@H](C#N)C[C@@H]1CCNC1=O)C2(C)C` it was 32.6 nM.
Turning to `Cn1cnc(Cn2c(=O)[nH]/c(=N\c3cc4cn(C)nc4cc3Cl)n(Cc3cc(F)c(F)cc3F)c2=O)n1`, the midpoint of the response in the data set on SARS-CoV-2 [16], the EC50, lay at 220 nM.
